From patent US10253355B2, “Instrument and system for rapid microorganism identification and antimicrobial agent susceptibility testing” (Accelerate Diagnostics, Inc., priority 2015, dated 2019)
Like-named read-outs stand apart in the source and are kept apart here.

Assays:
[1] = tested on: methicillin-resistant S. aureus (MRSA); assay: Time-lapse imaging of isolates growing in cefoxitin (MRSA); assay type: cell-based; details: by 4.5 hours (FIG. 90)
Experimental: (§1) The results of the identification assay drive antibiotic selection for antimicrobial susceptibility testing. The remaining samples undergo a pre-growth step to normalize growth rates during the approximately 1-hour FISH ID assay. The concentration of organisms in the purified inoculum was determined by repeating the quantitation process with a universal nucleic acid stain as previously described herein. […] Following cell immobilization, antimicrobial solutions in Mueller-Hinton agar were dispensed into the flowcells. Different antimicrobials were tested in separate flowcells, and only a single concentration of each antimicrobial was used. A growth control consisting of Mueller-Hinton agar without any antimicrobial was included for each run. A dark-field microscope and camera produced time-lapse images approximately every 10 minutes of progenitor cells growing into clones of daughter cells in each flowcell. The agar ensured daughter cells were immobilized and remained localized to each growing clone. Resistant clones grew while susceptible clones arrest or lyse over time (FIG. 90).

[2] = tested on: Staphylococcus aureus ATCC 43300; assay: AST QC assay on AD-1 instrument, QC isolate S. aureus ATCC 43300; assay type: cell-based; details: resistance phenotype
From the text: The reportable range for the AST QC assay in some examples are adjusted such that the selected QC isolates have an MIC that is within the reportable range of the QC Assay. These extended ranges are only applied to QC testing and are not applied to AST assessment of patient samples. The process for assigning an MIC value to the QC organisms is the same or similar to that used for patient samples. […] This approach allows testing of, for example, CLSI recommended QC isolates without affecting the algorithms that are optimized around antimicrobial breakpoints. The algorithms used in ID QC or AST QC testing include those described above, for example, when the QC test samples are microbial isolates. For ID QC testing utilizing target microbial nucleic acids coupled to a bead, positive detection is achieved by comparing the cumulative count in the target (e.g., Green fluorescence channel) only against a threshold of objects that have brightness exceeding bead autofluorescence. Negative control detection is achieved by doing the same for eubacteria (e.g., Red fluorescence) channel only. […]
The results of the identification assay drive antibiotic selection for antimicrobial susceptibility testing. […] The concentration of organisms in the purified inoculum was determined by repeating the quantitation process with a universal nucleic acid stain as previously described herein. […]

[3] = tested on: Staphylococcus aureus ATCC 29213; assay: AST QC assay on AD-1 instrument, QC isolate S. aureus ATCC 29213; assay type: cell-based; details: for Result (phenotypic positive/negative test): resistance phenotype; for Result (MIC value): unit assumed
From the text: (§2) The reportable range for the AST QC assay in some examples are adjusted such that the selected QC isolates have an MIC that is within the reportable range of the QC Assay. These extended ranges are only applied to QC testing and are not applied to AST assessment of patient samples. The process for assigning an MIC value to the QC organisms is the same or similar to that used for patient samples. […] This approach allows testing of, for example, CLSI recommended QC isolates without affecting the algorithms that are optimized around antimicrobial breakpoints. The algorithms used in ID QC or AST QC testing include those described above, for example, when the QC test samples are microbial isolates. For ID QC testing utilizing target microbial nucleic acids coupled to a bead, positive detection is achieved by comparing the cumulative count in the target (e.g., Green fluorescence channel) only against a threshold of objects that have brightness exceeding bead autofluorescence. Negative control detection is achieved by doing the same for eubacteria (e.g., Red fluorescence) channel only. For example, the number of bright red objects should not exceed a threshold in order to pass negative control.
In addition, the CLSI required QC isolates for the relevant antimicrobial resistance phenotype assays (MRSA/MSA, and MLSb) may also be tested. When following CLSI recommendations, routine testing of a designated susceptible isolate as well as testing of designated resistant isolates for each new lot and/or new shipment of reagent kits should be performed. These isolates, therefore, may be included in the QC Assay. For example, Cefoxitin may be tested with Staphylococcus aureus ATCC 29213 as the susceptible isolate and Staphylococcus aureus ATCC 43300 may be tested as the resistant isolate.
as §1
Custom image analysis software assigned unique spatial XY coordinates to individual progenitor cells (FIG. 91), allowing each growing clone across a series of time-lapse images to be identified. The intensity of each clone can be used as a metric of clone mass in each image. By measuring over time, this metric was used to generate growth curves for each individual clone (FIG. 92). The pattern of cell responses was used to determine the susceptibility of the overall population. […]

[4] = tested on: Staphylococcus aureus ATCC 29213; details: cited from earlier work
[5] = tested on: Staphylococcus aureus ATCC 43300; details: S. aureus ATCC 43300, cited from earlier work
[6] = tested on: methicillin-susceptible S. aureus (MSSA); assay: Time-lapse imaging of isolates growing in cefoxitin (MSSA); assay type: cell-based; details: by 4.5 hours (FIG. 90)
Experimental: as §1

Pseudomonas strains = assay: Growth of Pseudomonas strains in nutrient-depleted vs standard Mueller-Hinton media with antibiotic, automated microscopy; assay type: cell-based
Experimental: A series of growth media was formulated with […] strength of standard Mueller-Hinton nutrients (3 g beef infusion 17.5 g casein hydrolysate, 1.5 g starch, the final product being pH adjusted to neutral at 25° C.) while maintaining the agar concentration at 0.94% in the culture media. The effect of this depleted-nutrient media formulation on bacterial cell growth was evaluated with more than 50 strains of Pseudomonas in the presence of a panel of beta-lactam antibiotics. Cells were imaged using automated microscopy as described above. […] FIGS. 85A-C plots the log of bacterial dark phase intensity versus time, which is proportional to measuring cell mass in culture. FIGS. 85D-F are a quantitative representation of the data presented in panels FIGS. 85A-C expressed as rate of bacterial cell division.

[7] = tested on: Escherichia coli ATCC 35218; assay: AST QC assay on AD-1 instrument, QC isolate E. coli ATCC 35218; assay type: cell-based; details: unit assumed
From the text: as §2
as §1, with “A dark-field microscope and camera produced time-lapse images approximately every 10 minutes of progenitor cells growing into clones of daughter cells in each flowcell. The agar ensured daughter cells were immobilized and remained localized to each growing clone. Resistant clones grew while susceptible clones arrest or lyse over time (FIG. 90).” left out

CO[C@@]1(NC(=O)Cc2cccs2)C(=O)N2C(C(=O)O)=C(COC(N)=O)CS[C@@H]21 [Cefoxitin]
Clone growth in time-lapse images [1]: continue to grow | Result (phenotypic positive/negative test) ([2]; AST only report (Table 10)): POS | Result (phenotypic positive/negative test) ([2]; ID and AST report (Table 11)): POS | Result (phenotypic positive/negative test) ([3]; AST only report (Table 10)): NEG | Result (phenotypic positive/negative test) ([3]; ID and AST report (Table 11)): NEG | Organism QC Range (Positive/Negative phenotype) ([4]; AST QC panel (Table 9), S. aureus ATCC 29213): Negative | Expected (phenotypic positive/negative test) ([4]; AST only report (Table 10), S. aureus ATCC 29213): NEG | Expected (phenotypic positive/negative test) ([4]; ID and AST report (Table 11), S. aureus ATCC 29213): NEG | Organism QC Range (Positive/Negative phenotype) ([5]; AST QC panel (Table 9)): Positive | Expected (phenotypic positive/negative test) ([5]; AST only report (Table 10)): POS | Expected (phenotypic positive/negative test) ([5]; ID and AST report (Table 11)): POS | Clone growth in time-lapse images [6]: arrested or lysed

Piperacillin-Tazobactam
Susceptibility of the bacteria (Pseudomonas strains; Pseudomonas isolate of FIGS. 85A-F): susceptible | Bacterial growth / replication pattern in presence of antibiotic (Pseudomonas strains; nutrient-depleted media (approx. 87% reduction in Mueller-Hinton nutrients), within 3.5 hours): substantially impaired growth | Antibiotic effect on filamentous cells (Pseudomonas strains; standard Mueller-Hinton media, 2 to 3.5 hours of exposure): no discernable antibiotic effect | Result (MIC value) ([7]; AST only report (Table 10)): 1 µg/mL | Result (MIC value) ([7]; ID and AST report (Table 11)): 1 µg/mL

Trimethoprim-Sulfamethoxazole
Result (MIC value) ([3]; AST only report (Table 10)): 0.25 µg/mL | Result (MIC value) ([3]; ID and AST report (Table 11)): 0.25 µg/mL

Ampicillin-Sulbactam
Result (MIC value) ([7]; AST only report (Table 10)): 16 µg/mL

CC[C@H]1OC(=O)[C@H](C)[C@@H](O[C@H]2C[C@@](C)(OC)[C@@H](O)[C@H](C)O2)[C@H](C)[C@@H](O[C@@H]2O[C@H](C)C[C@H](N(C)C)[C@H]2O)[C@](C)(O)C[C@@H](C)C(=O)[C@H](C)[C@@H](O)[C@]1(C)O [Erythromycin]
Result (MIC value) ([3]; AST only report (Table 10)): 0.6 µg/mL | Organism QC Range (MIC) ([4]; AST QC panel (Table 9), CLSI recommended isolate S. aureus ATCC 29213, in µg/mL (unit assumed)): 0.25-1 | Expected (MIC acceptance range) ([4]; AST only report (Table 10), S. aureus ATCC 29213, in µg/mL (unit assumed)): 0.25-1
